The source of these data is ChEMBL document CHEMBL2074245, “Valacyclovir: a substrate for the intestinal and renal peptide transporters PEPT1 and PEPT2” (Biochem Biophys Res Commun, 1998).

Type in all cases: functional, cell-based
In data set [1] the target is T1, Solute carrier family 15 member 2 (Rattus norvegicus, UniProt Q63424).
T1 sequence (Q63424 whole entry): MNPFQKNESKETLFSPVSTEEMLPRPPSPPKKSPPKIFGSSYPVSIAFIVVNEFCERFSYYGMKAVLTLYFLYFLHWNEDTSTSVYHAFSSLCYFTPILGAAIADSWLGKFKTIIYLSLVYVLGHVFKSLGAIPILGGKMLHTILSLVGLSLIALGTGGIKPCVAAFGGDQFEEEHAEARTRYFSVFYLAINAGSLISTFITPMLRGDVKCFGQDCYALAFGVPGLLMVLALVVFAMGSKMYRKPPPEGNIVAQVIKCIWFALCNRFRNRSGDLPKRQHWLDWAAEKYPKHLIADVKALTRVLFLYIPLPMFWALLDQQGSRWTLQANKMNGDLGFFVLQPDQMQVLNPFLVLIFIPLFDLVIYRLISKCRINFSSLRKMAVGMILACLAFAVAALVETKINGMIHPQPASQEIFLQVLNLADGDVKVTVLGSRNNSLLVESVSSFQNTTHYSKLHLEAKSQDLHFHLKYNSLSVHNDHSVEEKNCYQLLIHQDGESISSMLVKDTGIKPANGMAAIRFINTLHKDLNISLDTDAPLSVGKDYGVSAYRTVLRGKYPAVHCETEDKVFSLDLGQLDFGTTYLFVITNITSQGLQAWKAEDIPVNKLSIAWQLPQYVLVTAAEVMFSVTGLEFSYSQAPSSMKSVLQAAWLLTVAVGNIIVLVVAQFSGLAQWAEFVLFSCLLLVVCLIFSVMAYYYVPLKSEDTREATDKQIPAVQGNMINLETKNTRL
Description: TP_TRANSPORTER: inhibition of Gly-Sar uptake in PEPT2-expressing HeLa cells.

Data set [2] has as its target T2, Solute carrier family 15 member 1 (Homo sapiens, UniProt P46059).
T2 sequence (P46059 whole entry): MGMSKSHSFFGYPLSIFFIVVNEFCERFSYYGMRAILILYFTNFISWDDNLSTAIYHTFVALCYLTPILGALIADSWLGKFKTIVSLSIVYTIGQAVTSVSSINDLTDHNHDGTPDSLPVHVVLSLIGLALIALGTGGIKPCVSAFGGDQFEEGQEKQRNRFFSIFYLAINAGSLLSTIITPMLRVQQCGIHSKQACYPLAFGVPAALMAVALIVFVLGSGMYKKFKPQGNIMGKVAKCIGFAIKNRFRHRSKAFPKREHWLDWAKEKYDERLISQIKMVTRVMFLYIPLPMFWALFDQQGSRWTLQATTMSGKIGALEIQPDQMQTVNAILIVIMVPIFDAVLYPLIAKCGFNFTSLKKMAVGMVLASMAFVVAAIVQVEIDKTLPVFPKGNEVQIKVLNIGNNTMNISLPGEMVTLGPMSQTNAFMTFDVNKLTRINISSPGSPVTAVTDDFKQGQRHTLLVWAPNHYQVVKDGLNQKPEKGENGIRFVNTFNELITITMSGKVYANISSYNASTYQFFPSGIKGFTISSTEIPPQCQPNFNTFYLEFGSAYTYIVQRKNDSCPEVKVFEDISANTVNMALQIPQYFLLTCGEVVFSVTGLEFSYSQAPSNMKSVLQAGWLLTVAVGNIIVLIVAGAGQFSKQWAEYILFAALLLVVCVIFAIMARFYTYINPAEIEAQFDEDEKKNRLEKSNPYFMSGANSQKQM
Description: TP_TRANSPORTER: inhibition of Gly-Sar uptake in Caco-2 cells.

Data set [3] deals with T2, Solute carrier family 15 member 1. Description: TP_TRANSPORTER: inhibition of Gly-Sar uptake in PEPT1-expressing HeLa cells.
The target of data set [4] is T1, Solute carrier family 15 member 2. Description: TP_TRANSPORTER: inhibition of Gly-Sar uptake in SKPT cells.
Substrate in data set [5]: CN(CC(=O)O)C(=O)CN
In words: TP_TRANSPORTER: uptake in Caco-2 cells.

Substrate in data set [6]: CN(CC(=O)O)C(=O)CN
Description: TP_TRANSPORTER: uptake in PEPT1-expressing HeLa cells.

Substrate in data set [7]: CN(CC(=O)O)C(=O)CN
In words: TP_TRANSPORTER: uptake in PEPT2-expressing HeLa cells.

Substrate in data set [8]: CN(CC(=O)O)C(=O)CN
In words: TP_TRANSPORTER: uptake in SKPT cells.

As for `CC(C)[C@H](N)C(=O)OCCOCn1cnc2c(=O)[nH]c(N)nc21` [VALACYCLOVIR], the Ki stood at 390 µM in data set [1], 490 µM in data set [2], 740 µM in data set [3] and 170 µM in data set [4].

B1: Solute carrier family 15 member 1 (Homo sapiens), P46059 (protein)
chain: MGMSKSHSFFGYPLSIFFIVVNEFCERFSYYGMRAILILYFTNFISWDDNLSTAIYHTFVALCYLTPILGALIADSWLGKFKTIVSLSIVYTIGQAVTSVSSINDLTDHNHDGTPDSLPVHVVLSLIGLALIALGTGGIKPCVSAFGGDQFEEGQEKQRNRFFSIFYLAINAGSLLSTIITPMLRVQQCGIHSKQACYPLAFGVPAALMAVALIVFVLGSGMYKKFKPQGNIMGKVAKCIGFAIKNRFRHRSKAFPKREHWLDWAKEKYDERLISQIKMVTRVMFLYIPLPMFWALFDQQGSRWTLQATTMSGKIGALEIQPDQMQTVNAILIVIMVPIFDAVLYPLIAKCGFNFTSLKKMAVGMVLASMAFVVAAIVQVEIDKTLPVFPKGNEVQIKVLNIGNNTMNISLPGEMVTLGPMSQTNAFMTFDVNKLTRINISSPGSPVTAVTDDFKQGQRHTLLVWAPNHYQVVKDGLNQKPEKGENGIRFVNTFNELITITMSGKVYANISSYNASTYQFFPSGIKGFTISSTEIPPQCQPNFNTFYLEFGSAYTYIVQRKNDSCPEVKVFEDISANTVNMALQIPQYFLLTCGEVVFSVTGLEFSYSQAPSNMKSVLQAGWLLTVAVGNIIVLIVAGAGQFSKQWAEYILFAALLLVVCVIFAIMARFYTYINPAEIEAQFDEDEKKNRLEKSNPYFMSGANSQKQM
On to B1, for which the results for the Michaelis-Menten constant (Km) in data set [5] and in data set [6] were 510 µM and 450 µM, respectively.

B2: Solute carrier family 15 member 2 (Rattus norvegicus), Q63424 (protein)
chain: MNPFQKNESKETLFSPVSTEEMLPRPPSPPKKSPPKIFGSSYPVSIAFIVVNEFCERFSYYGMKAVLTLYFLYFLHWNEDTSTSVYHAFSSLCYFTPILGAAIADSWLGKFKTIIYLSLVYVLGHVFKSLGAIPILGGKMLHTILSLVGLSLIALGTGGIKPCVAAFGGDQFEEEHAEARTRYFSVFYLAINAGSLISTFITPMLRGDVKCFGQDCYALAFGVPGLLMVLALVVFAMGSKMYRKPPPEGNIVAQVIKCIWFALCNRFRNRSGDLPKRQHWLDWAAEKYPKHLIADVKALTRVLFLYIPLPMFWALLDQQGSRWTLQANKMNGDLGFFVLQPDQMQVLNPFLVLIFIPLFDLVIYRLISKCRINFSSLRKMAVGMILACLAFAVAALVETKINGMIHPQPASQEIFLQVLNLADGDVKVTVLGSRNNSLLVESVSSFQNTTHYSKLHLEAKSQDLHFHLKYNSLSVHNDHSVEEKNCYQLLIHQDGESISSMLVKDTGIKPANGMAAIRFINTLHKDLNISLDTDAPLSVGKDYGVSAYRTVLRGKYPAVHCETEDKVFSLDLGQLDFGTTYLFVITNITSQGLQAWKAEDIPVNKLSIAWQLPQYVLVTAAEVMFSVTGLEFSYSQAPSSMKSVLQAAWLLTVAVGNIIVLVVAQFSGLAQWAEFVLFSCLLLVVCLIFSVMAYYYVPLKSEDTREATDKQIPAVQGNMINLETKNTRL
Regarding B2, the Km is 70 µM in data set [7] and 67 µM in data set [8].
